Values quoted from earlier work as cited in patent US20130217055A1, “METHOD FOR PREDICTING TYROSINE KINASE INHIBITOR (TKI) RESISTANCE IN PATIENTS SUFFERING FROM CHRONIC MYELOGENOUS LEUKEMIA (CML)” (PamGene B.V., priority 2010, published 2013).

Tested on: CML patients

Cc1ccc(NC(=O)c2ccc(CN3CCN(C)CC3)cc2)cc1Nc1nccc(-c2cccnc2)n1 [Imatinib]
complete or nearly complete cytogenetic remission (patients treated in chronic phase CML): up to 80% of patients
CML patients treated that are or become resistant to the treatment (primary or secondary resistance): about 20%
